Values after ≈ are worked out from the molar mass of the structure shown. Active and inactive are the calls of the source. The calls are words filed in the database; no cut-off is given here.
How the values were obtained:
Wuchereria bancrofti = experiment: Antifilarial activity against microfilaria of Wuchereria bancrofti assessed as reduction in worm viability at 18 nM after 24 hrs by MTT assay; format: functional
[1] = Antifilarial activity against microfilaria of Wuchereria bancrofti assessed as inhibition of relative movability after 24 hrs by microscopy; format: functional
Setaria cervi [2] = experiment: Induction of apoptosis in microfilaria of Setaria cervi assessed as chromatin condensation after 24 hrs by Hoechst 33342 staining-based fluorescence microscopy; format: functional, organism-based
Setaria cervi [3] = experiment: Induction of apoptosis in microfilaria of Setaria cervi assessed as DNA fragmentation after 24 hrs by Hoechst 33342 staining-based fluorescence microscopy; format: functional, organism-based
[4] = Selectivity index, ratio of CC50 for human normal kidney epithelial cells to IC50 for microfilaria of Setaria cervi; format: functional, Epithelial cell
[5] = Cytotoxicity against human normal kidney epithelial cells after 24 hrs by MTT assay; format: cell-based, Epithelial cell
Setaria cervi [6] = experiment: Induction of cuticular sheath damage in microfilaria of Setaria cervi after 24 hrs by scanning electron microscopy; format: functional, organism-based
Setaria cervi [7] = experiment: Antifilarial activity against microfilaria of Setaria cervi assessed as inhibition of worm viability after 24 hrs by MTT assay; format: functional
Setaria cervi [8] = experiment: Potency index, ratio of ivermectin LC50 to compound LC50 for microfilaria of Setaria cervi by MTT assay; format: functional
Setaria cervi [9] = experiment: Induction of apoptosis in microfilaria of Setaria cervi assessed as DNA fragmentation after 24 hrs by propidium iodide staining-based inverted fluorescence microscopy; format: functional, organism-based
Setaria cervi [10] = experiment: Induction of apoptosis in microfilaria of Setaria cervi assessed as chromatin condensation after 24 hrs by propidium iodide staining-based inverted fluorescence microscopy; format: functional, organism-based
Setaria cervi [11] = experiment: Antifilarial activity against microfilaria of Setaria cervi assessed as inhibition of relative movability after 24 hrs by microscopy; format: functional, organism-based

Row | Compound | LC50 (Setaria cervi [7]) | IC50 (Setaria cervi [11]; Setaria cervi, 24 h) | MIC (Setaria cervi [11]; Setaria cervi, 24 h) | other results
1 | CC(=O)OC[C@H]1O[C@@H](CC(=O)/C=C/c2ccc(Cl)c(Cl)c2)[C@H](OC(C)=O)[C@@H](OC(C)=O)[C@@H]1OC(C)=O | 13.2 nM | 6.97 nM | 0.00458 µM (≈ 2.5 ng/mL) | Activity (Wuchereria bancrofti): 81.09%; IC50 [1]: 6.77 nM; MIC [1]: 0.00458 µM (≈ 2.5 ng/mL); inhibition [1]: Dose-dependent effect; Activity (Setaria cervi [2]): Active; Activity (Setaria cervi [3]): Active; Ratio CC50/IC50 [4]: 3.97; CC50 at 24 h [5]: 25.8 nM; Activity (Setaria cervi [6]): Active; RatioLC50 (Setaria cervi [8]): 6.5; Activity (Setaria cervi [9]): Active; Activity (Setaria cervi [10]): Active
2 | COc1cc(/C=C/C(=O)C[C@@H]2O[C@H](COC(C)=O)[C@@H](OC(C)=O)[C@H](OC(C)=O)[C@H]2OC(C)=O)cc(OC)c1OC | 140 nM | 76.4 nM | 0.0602 µM (≈ 34.1 ng/mL) | 
3 | CC(=O)OC[C@H]1O[C@@H](CC(=O)/C=C/c2ccc([N+](=O)[O-])cc2)[C@H](OC(C)=O)[C@@H](OC(C)=O)[C@@H]1OC(C)=O | 71.2 nM | 23.9 nM | 0.0111 µM (≈ 5.8 ng/mL) | 
4 | CC(=O)OC[C@H]1O[C@@H](CC(=O)/C=C/c2cc(Cl)cc(Cl)c2O)[C@H](OC(C)=O)[C@@H](OC(C)=O)[C@@H]1OC(C)=O | 44.4 nM | 17.7 nM | 0.00919 µM (≈ 5.16 ng/mL) | 
5 | COc1ccc(/C=C/C(=O)C[C@@H]2O[C@H](COC(C)=O)[C@@H](OC(C)=O)[C@H](OC(C)=O)[C@H]2OC(C)=O)cc1OC | 274 nM | 81.4 nM | 0.0629 µM (≈ 33.7 ng/mL) | 
6 | CC(=O)OC[C@H]1O[C@@H](CC(=O)/C=C/c2cc(Cl)cc(Cl)c2)[C@H](OC(C)=O)[C@@H](OC(C)=O)[C@@H]1OC(C)=O | 15.8 nM | 7.52 nM | 0.00532 µM (≈ 2.9 ng/mL) | Activity (Wuchereria bancrofti): 73.1%; IC50 [1]: 9.33 nM; MIC [1]: 0.00476 µM (≈ 2.6 ng/mL); inhibition [1]: Dose-dependent effect; Activity (Setaria cervi [2]): Active; Activity (Setaria cervi [3]): Active; Ratio CC50/IC50 [4]: 4.94; CC50 at 24 h [5]: 32.9 nM; Activity (Setaria cervi [6]): inactive; RatioLC50 (Setaria cervi [8]): 5.4; Activity (Setaria cervi [9]): Active; Activity (Setaria cervi [10]): Active
7 | CC(=O)OC[C@H]1O[C@@H](CC(=O)/C=C/c2cccs2)[C@H](OC(C)=O)[C@@H](OC(C)=O)[C@@H]1OC(C)=O | 257 nM | 46.9 nM | 0.0245 µM (≈ 11.8 ng/mL) | 
8 | CC(=O)OC[C@H]1O[C@@H](CC(=O)/C=C/c2ccccc2)[C@H](OC(C)=O)[C@@H](OC(C)=O)[C@@H]1OC(C)=O | 108 nM | 38.8 nM | 0.0206 µM (≈ 9.8 ng/mL) | 
9 | COc1ccccc1/C=C/C(=O)C[C@@H]1O[C@H](COC(C)=O)[C@@H](OC(C)=O)[C@H](OC(C)=O)[C@H]1OC(C)=O | 256 nM | 68.9 nM | 0.0351 µM (≈ 17.8 ng/mL) | 
10 | CC(=O)OC[C@H]1O[C@@H](CC(=O)/C=C/c2ccc(C)cc2)[C@H](OC(C)=O)[C@@H](OC(C)=O)[C@@H]1OC(C)=O | 42.2 nM | 13.6 nM | 0.00581 µM (≈ 2.85 ng/mL) | Ratio CC50/IC50 [4]: 0.24; CC50 at 24 h [5]: 3.18 nM
11 | CC(=O)OC[C@H]1O[C@@H](CC(=O)/C=C/c2ccco2)[C@H](OC(C)=O)[C@@H](OC(C)=O)[C@@H]1OC(C)=O | 163 nM | 46.6 nM | 0.0153 µM (≈ 7.12 ng/mL) | 
12 | CC(=O)OC[C@H]1O[C@@H](CC(=O)/C=C/c2ccc3ccccc3c2)[C@H](OC(C)=O)[C@@H](OC(C)=O)[C@@H]1OC(C)=O | > 900 nM | > 900 nM | > 0.9 µM | 
13 | COc1ccc(/C=C/C(=O)C[C@@H]2O[C@H](COC(C)=O)[C@@H](OC(C)=O)[C@H](OC(C)=O)[C@H]2OC(C)=O)cc1OCc1ccccc1 | > 900 nM | 250 nM | 0.123 µM (≈ 75.2 ng/mL) | 
14 | CC(=O)OC[C@H]1O[C@@H](CC(=O)/C=C/c2ccc(O)cc2)[C@H](OC(C)=O)[C@@H](OC(C)=O)[C@@H]1OC(C)=O | > 900 nM | > 900 nM | > 0.9 µM | 
15 | CC(=O)OC[C@H]1O[C@@H](CC(=O)/C=C/c2ccc(Cl)cc2)[C@H](OC(C)=O)[C@@H](OC(C)=O)[C@@H]1OC(C)=O | 51.9 nM | 26.6 nM | 0.0167 µM (≈ 8.54 ng/mL) | 
16 | CC(=O)OC[C@H]1O[C@@H](CC(=O)/C=C/c2ccc(OCc3ccccc3)cc2)[C@H](OC(C)=O)[C@@H](OC(C)=O)[C@@H]1OC(C)=O | > 900 nM | 348 nM | 0.263 µM (≈ 153 ng/mL) | 
17 | CC(=O)OC[C@H]1O[C@@H](CC(=O)/C=C/c2cccnc2)[C@H](OC(C)=O)[C@@H](OC(C)=O)[C@@H]1OC(C)=O | 26.7 nM | 7.64 nM | 0.00377 µM (≈ 1.8 ng/mL) | Ratio CC50/IC50 [4]: 0.56; CC50 at 24 h [5]: 4.17 nM
18 | CC(=O)OC[C@H]1O[C@@H](CC(=O)/C=C/c2ccc(N(C)C)cc2)[C@H](OC(C)=O)[C@@H](OC(C)=O)[C@@H]1OC(C)=O | 886 nM | 226 nM | 0.113 µM (≈ 58.9 ng/mL) | 
19 | CC(=O)OC[C@H]1O[C@@H](CC(=O)/C=C/c2ccc([N+](=O)[O-])s2)[C@H](OC(C)=O)[C@@H](OC(C)=O)[C@@H]1OC(C)=O | 47.5 nM | 21.3 nM | 0.0106 µM (≈ 5.6 ng/mL) | 
20 | COc1cc(/C=C/C(=O)C[C@@H]2O[C@H](COC(C)=O)[C@@H](OC(C)=O)[C@H](OC(C)=O)[C@H]2OC(C)=O)ccc1O | 500 nM | 185 nM | 0.0722 µM (≈ 37.7 ng/mL) | 
21 | COc1cccc(/C=C/C(=O)C[C@@H]2O[C@H](COC(C)=O)[C@@H](OC(C)=O)[C@H](OC(C)=O)[C@H]2OC(C)=O)c1 | > 900 nM | > 900 nM | > 0.9 µM | 
22 | CC(=O)OC[C@H]1O[C@@H](CC(=O)/C=C/c2ccc(OC(C)=O)cc2)[C@H](OC(C)=O)[C@@H](OC(C)=O)[C@@H]1OC(C)=O | 336 nM | 119 nM | 0.0342 µM (≈ 18.3 ng/mL) | 
23 | IVERMECTIN [listing 1 of 2 here] |  |  |  | IC50 (Setaria cervi [11]): 19.5 nM
24 | CC(=O)OC[C@H]1O[C@@H](CC(=O)/C=C/c2ccc(C(F)(F)F)cc2)[C@H](OC(C)=O)[C@@H](OC(C)=O)[C@@H]1OC(C)=O | 24.6 nM | 6.89 nM | 0.0034 µM (≈ 1.85 ng/mL) | Activity (Wuchereria bancrofti): 40.6%; IC50 [1]: 8.96 nM; MIC [1]: 0.0044 µM (≈ 2.4 ng/mL); inhibition [1]: Dose-dependent effect; Activity (Setaria cervi [2]): Active; Activity (Setaria cervi [3]): Active; Ratio CC50/IC50 [4]: 14.87; CC50 at 24 h [5]: 102 nM; Activity (Setaria cervi [6]): Active; RatioLC50 (Setaria cervi [8]): 3.5; Activity (Setaria cervi [9]): Active; Activity (Setaria cervi [10]): Active
25 | CC(=O)OC[C@H]1O[C@@H](CC(=O)/C=C/c2cccc3ccccc23)[C@H](OC(C)=O)[C@@H](OC(C)=O)[C@@H]1OC(C)=O | 19.4 nM | 13.5 nM | 0.0117 µM (≈ 6.15 ng/mL) | 
26 | CC(=O)OC[C@H]1O[C@@H](CC(=O)/C=C/c2cccc([N+](=O)[O-])c2)[C@H](OC(C)=O)[C@@H](OC(C)=O)[C@@H]1OC(C)=O | 29 nM | 11.3 nM | 0.00594 µM (≈ 3.1 ng/mL) | Ratio CC50/IC50 [4]: 1.44; CC50 at 24 h [5]: 15.4 nM
27 | COc1ccc(/C=C/C(=O)C[C@@H]2O[C@H](COC(C)=O)[C@@H](OC(C)=O)[C@H](OC(C)=O)[C@H]2OC(C)=O)cc1 | 142 nM | 41.6 nM | 0.0207 µM (≈ 10.5 ng/mL) | 
28 | CCOc1ccc(/C=C/C(=O)C[C@@H]2O[C@H](COC(C)=O)[C@@H](OC(C)=O)[C@H](OC(C)=O)[C@H]2OC(C)=O)cc1 | 76.8 nM | 51.4 nM | 0.0279 µM (≈ 14.5 ng/mL) | 
29 | IVERMECTIN [listing 2 of 2 here] | 53.6 nM |  |  | Activity (Wuchereria bancrofti): 17.6%; MIC (Setaria cervi [11]): 0.00743 µM

— ChEMBL document CHEMBL3792383, “C-cinnamoyl glycosides as a new class of anti-filarial agents” (Eur J Med Chem, 2016)
